Measurements from patent US11541041B1, “Compounds that interact with the Ras superfamily for the treatment of cancers, inflammatory diseases, Rasopathies, and fibrotic disease” (Shy Therapeutics LLC, priority 2017, dated 2023).

Tests used:
[1] = system: MAPK phosphorylation in PANC-1 pancreatic cancer cell line; assay: MAPK cell-based phosphorylation assay (cell-direct ELISA, EGF-stimulated); details: Homo sapiens
Procedure: Cell lines: Tumor-derived pancreatic cancer cell lines PANC-1 were purchased from ATCC and were maintained according to ATCC recommendation.
Method: Cells were plated at 7500 cells/well density in 96-wells plate, starved over night, and the small molecules to be tested were added to the cells in the final concentration of 30 μM with 0.3% DMSO for 6 hours incubation at 37° C. For IC50 value determination, serial dilutions of compounds were added to cells under the same conditions. Next, cells were stimulated with 1.5 ng/ml EGF for 15 min. followed by cell fixation with 4% Formaldehyde in PBS at RT for 20 min. Phosphorylation level of MAPK was determined by Cell-direct ELISA.
Cell-direct ELISA: For each well, cells were permeabilized with PBS-Triton 0.1%, quenched with H2O2 0.6% in PBS-Triton 0.1%, and probed with anti-phospho-MAPK antibodies (R&D Systems) followed by HRP-conjugated secondary antibody (Jackson Immunoresearch, West Grove, Pa.). Next, a solution 50 μM of the fluorescent substrate AmpliFlu Red (Sigma) was added and incubated at RT for 20 min. At the end of the incubation time, fluorescence was measured at 595 nm on a microplate reader (AF2200; Eppendorf, Inc., Hamburg, Germany).

[2] = system: MIA-PACA2 pancreatic cancer cell lines; assay: Cell proliferation assay (CellTiter 96 AQueous One); format: cell-based; details: Homo sapiens, MIA PaCa-2; for inhibition at 30 µM: MIA-PACA2
Procedure: (§1) Cell lines: Tumor-derived pancreatic cancer cell lines MIA-PACA2 were purchased from ATCC and grown in complete DMEM-High Glucose medium supplemented with penicillin (100 U/mL), streptomycin (100 μg/mL), and 10% heat-inactivated FBS at 37° C. in a humidified incubator with 5% CO2.
Method: Cells are plated at 1000 cells/well density in 96-wells plate, starved ON, and the next day tested small molecules are added to the cells in the final concentration of 30 μM with 0.3% DMSO 3 hours prior to 10% FBS addition. After serum addition cells are incubated for 6 days at 37° C. in a humidified incubator with 5% CO2. For IC50 value determination, serial dilutions of compounds were added to cells under the same conditions.
Assay: At the end of the incubation period, cell cultures are tested using the CellTiter 96® AQueous One Solution Cell Proliferation Assay kit (Promega Corporation, Madison, Wis.) according to the manufacturer specifications. Briefly, assay is performed by adding 20 μl of the CellTiter 96 Aqueous One Solution Reagent directly to culture wells, followed by for 1-4 hours incubation at 37° C. in a humidified incubator with 5% CO2. At the end of incubation time, absorbance at 492 nm is recorded with the 96-well plate reader Eppendorf AF2200, and degree of small molecule-dependent proliferation inhibition is calculated from raw data assuming No Serum cells value as 100%.

[3] = system: MIA-PACA2 pancreatic cancer cell lines; assay: Cell proliferation assay, alternate assay conditions (DAPI staining); format: cell-based; details: Homo sapiens, MIA PaCa-2; for inhibition at 10 µM: * = tested at 10 μM, alternate conditions, MIA-PACA2
Procedure: as §1
Method: Cells are plated at 4000 cells/well density in 96-wells plate. The next day tested small molecules are added to the cells in the final concentration of 10 μM in the presence of 0.3% DMSO and 10% FBS. After small molecules addition, cells are incubated for 4 days at 37° C. in a humidified incubator with 5% CO2. For IC50 value determination, serial dilutions of compounds were added to cells under the same conditions.
Assay: At the end of the incubation period, cell cultures are fixed with a 50-50 mixture (v/v) acetone-methanol for 10 minutes at −20° C., followed by rehydration in PBS for 10 minutes at room temperature. After rehydration, cells are stained with DAPI (1 μg/ml) in PBS for 10 minutes at room temperature, followed by 3 washes with PBS. After staining, DAPI fluorescence is recorded (358 nm excitation/461 nm emission) with the 96-well plate reader Molecular Devices Spectramax M3; degree of small mole-cule-dependent proliferation inhibition is calculated from raw data assuming No Serum cells value as 100%.

Row | SMILES | inhibition at 30 µM [2] | inhibition at 10 µM [3] | other results
1 | O=C(CCc1c[nH]c2ccccc12)Nc1nnc(-c2cccnc2)[nH]1 |  |  | inhibition at 30 µM [1]: 25 to 50%
2 | O=C(Nc1nnc(-c2ccccc2)[nH]1)C1CCCC1 |  |  | inhibition at 30 µM [1]: 1 to 25%
3 | O=C(Nc1nnc(-c2ccccc2)[nH]1)c1ncoc1-c1cccs1 |  |  | inhibition at 30 µM [1]: 25 to 50%
4 | Oc1nc(-c2ccccn2)nc2c(-c3ccccc3)csc12 |  |  | inhibition at 10 µM ([1]; * = tested at 10 μM): 25 to 50%
5 | COCCOCCN(CCO)C(=O)c1csc2c(O)nc(-c3ccccn3)nc12 | 1 to 25% |  | 
6 | COc1cncc(CCNC(=O)c2csc3nc(-c4ccccn4)nc(N4CCOCC4)c23)c1 | 51 to 75% |  | 
7 | COCCCCNC(=O)c1csc2nc(-c3ccccn3)nc(N3CCSCC3)c12 | 1 to 25% |  | 
8 | Nc1nc(-c2ccccn2)nc2c(C(=O)N3CC4CC3CN4c3ccccc3)csc12 (stereo not shown) | 76 to 100% |  | 
9 | Nc1nc(-c2ccccn2)nc2c(-c3ccccn3)csc12 | 76 to 100% | 76 to 100% | IC50 ([2]; MIA-PACA2 proliferation, compound tested under both conditions, IC50 assay conditions not specified): > 1000 nM
10 | COc1nc(-c2ccccn2)nc2c(-c3cccc(O)c3)csc12 |  | 76 to 100% | 
11 | COc1nc(-c2ccccn2)nc2c(-c3cn(C)nc3C(C)C)csc12 |  | 76 to 100% | 
12 | COc1nc(-c2ccccn2)nc2c(-c3cc(CN4CCCC4)ccc3F)csc12 |  | 76 to 100% | 
13 | COc1nc(-c2ccccn2)nc2c(-c3cccc(C#N)c3)csc12 |  | 76 to 100% | 
14 | O=c1[nH]c(-c2ccccn2)nc2c(C3O[C@H](CO)[C@@H](O)[C@H]3O)csc12 (stereo partly shown) |  | 76 to 100% | 
15 | COOCCNc1nc(-c2nccn2C)nc2sc(-c3ccccc3)c(-c3ccccc3)c12 |  | 76 to 100% | IC50 ([3]; MIA-PACA2 proliferation, same assay as % inhibition (alternate conditions)): 501 to 1000 nM
16 | COCC(C)Nc1nc(-c2ccccn2)nc2sc(-c3ccncc3)c(-c3ccccc3)c12 (stereo not shown) |  | 51 to 75% | 
